The target in data set [1] is T1, 5-hydroxytryptamine receptor 1A (Homo sapiens, UniProt P08908).
T1 sequence (P08908 whole entry): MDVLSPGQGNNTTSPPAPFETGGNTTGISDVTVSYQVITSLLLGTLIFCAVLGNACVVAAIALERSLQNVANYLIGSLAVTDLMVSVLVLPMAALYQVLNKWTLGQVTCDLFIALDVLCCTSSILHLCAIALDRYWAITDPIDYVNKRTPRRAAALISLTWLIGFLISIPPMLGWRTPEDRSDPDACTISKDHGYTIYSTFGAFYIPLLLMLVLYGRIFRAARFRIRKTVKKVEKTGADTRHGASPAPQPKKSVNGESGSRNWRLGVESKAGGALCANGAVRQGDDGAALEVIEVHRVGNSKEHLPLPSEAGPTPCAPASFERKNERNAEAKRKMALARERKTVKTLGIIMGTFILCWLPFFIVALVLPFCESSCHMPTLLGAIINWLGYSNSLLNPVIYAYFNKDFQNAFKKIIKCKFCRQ
The experiment in a line: Displacement of [3H]-[…] from human full length 5-HT1AR expressed in HEK293 cells by radioligand binding assay. The data set is classed as cell-based. On the technique in general: Loss of bound radioactivity is the signal in a displacement assay; it reports binding, not function.

The target of data set [2] is 5-hydroxytryptamine receptor 7 (Homo sapiens, UniProt P34969). The data set is described as follows: Displacement of [3H]-5-CT from human full length 5HT7BR expressed in HEK293 cells by radioligand binding assay. The format is cell-based.
Data set [3] addresses T2, 5-hydroxytryptamine receptor 6 (Homo sapiens, UniProt P50406). The experiment in a line: Displacement of [3H]-LSD from human full length 5HT6R expressed in HEK293 cells by radioligand binding assay. The data set is classed as cell-based.
Data set [4] concerns the target 5-hydroxytryptamine receptor 2A (Homo sapiens, UniProt P28223). The experiment in a line: Displacement of [3H]-ketanserin from 5-HT2AR (unknown origin) expressed in CHO-K1 cells by radioligand binding assay. The data set is classed as cell-based.
Data set [5] concerns the target T3, D(2) dopamine receptor (Homo sapiens, UniProt P14416). The data set is described as follows: Displacement of [3H]-raclopride from human full length D2L receptor expressed in HEK293 cells by radioligand binding assay. The data set is classed as cell-based.
Data set [6] in a line: Permeability coefficient of the compound in PBS buffer at pH 7.4 incubated for 5 hrs by PAMPA-based LC-MS analysis. The format is ADME. Conditions: read-out: Kp. Background: PAMPA measures passive passage across an artificial lipid membrane.
Data set [7] concerns the target T4, 5-hydroxytryptamine receptor 1A (Homo sapiens) (UniProt P08908).
T4 sequence (whole entry): T1 sequence (P08908 whole entry)
The experiment in a line: Binding affinity to human full length 5-HT1AR expressed in HEK293 cells by Cheng-Prusoff equation analysis. The format is cell-based. The conditions noted are these: filed as antagonist.

The target in data set [8] is T2, 5-hydroxytryptamine receptor 6. The experiment in a line: Binding affinity to 5-HT6R (unknown origin) assessed as inhibition constant.
The target of data set [9] is T1, 5-hydroxytryptamine receptor 1A. The data set is described as follows: Binding affinity to 5-HT1AR (unknown origin) assessed as inhibition constant.
The target in data set [10] is T3, D(2) dopamine receptor. The data set is described as follows: Binding affinity to D2L receptor (unknown origin) assessed as inhibition constant.
The species named for another data set is Homo sapiens. The experiment in a line: Selectivity ratio of Ki for human full length D2L receptor expressed in HEK293 cells to Ki for human full length 5-HT1AR expressed in HEK293 cells. The format is cell-based.
The target in data set [11] is T1, 5-hydroxytryptamine receptor 1A. The experiment in a line: Displacement of [3H]-[…] from human 5-HT1AR in human brain tissue by radioligand binding assay. The format is tissue-based.
The nature of data set [12]: Hepatotoxicity in human HepG2 cells assessed as reduction in cell viability at 50 to 100 uM incubated for 72 hrs by MTS assay. The data set is classed as toxicity, cell-based. Conditions: hepg2, 72 h, dose 50-100 µM. (Tetrazolium assays rely on reduction of a dye to a coloured formazan, in cell work by metabolically active cells.)
The target in a further data set is CYP3A4 (Homo sapiens, UniProt P08684). The data set is described as follows: Inhibition of CYP3A4 (unknown origin) at 10 uM by luminescence based Glo assay. The format is ADME. The conditions noted are these: CYP3A4 enzyme (unknown origin).
Data set [13] can be described thus: Metabolic stability in mouse liver microsomes assessed as parent compound remaining at 50 uM measured after 120 mins by UPLC-MS analysis. The conditions noted are these: read-out: Stability. The data set is classed as ADME, Microsome.
Data set [14] is described as follows: Hepatotoxicity in human HepG2 cells at 1 to 10 uM incubated for 72 hrs by MTS assay. The format is toxicity, cell-based. Conditions: hepg2, 72 h, dose 1-10 µM.

Some results are limits rather than exact numbers.

18 molecules from ChEMBL document CHEMBL5154833, “New N-aryl-N'-aryl-/(thio)ureido-/sulfamoylamino-derivatives of alkyl/alkylcarbamoyl piperazines: Effect of structural modifications on selectivity over 5-HT1A receptor” (Eur J Med Chem, 2022) can be followed below.

T3 sequence (P14416 whole entry): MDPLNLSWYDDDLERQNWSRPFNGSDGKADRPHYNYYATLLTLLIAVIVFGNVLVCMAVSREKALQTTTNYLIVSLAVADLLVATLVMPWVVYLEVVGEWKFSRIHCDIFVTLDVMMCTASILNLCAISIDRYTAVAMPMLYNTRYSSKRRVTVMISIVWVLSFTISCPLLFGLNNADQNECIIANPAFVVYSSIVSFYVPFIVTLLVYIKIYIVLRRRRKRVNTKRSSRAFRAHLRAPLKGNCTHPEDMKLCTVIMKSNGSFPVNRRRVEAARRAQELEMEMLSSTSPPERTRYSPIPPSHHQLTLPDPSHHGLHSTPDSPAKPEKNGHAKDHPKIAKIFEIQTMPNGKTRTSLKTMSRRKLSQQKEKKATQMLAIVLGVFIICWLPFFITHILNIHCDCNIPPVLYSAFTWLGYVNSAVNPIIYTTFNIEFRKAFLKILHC
T2 sequence (P50406 whole entry): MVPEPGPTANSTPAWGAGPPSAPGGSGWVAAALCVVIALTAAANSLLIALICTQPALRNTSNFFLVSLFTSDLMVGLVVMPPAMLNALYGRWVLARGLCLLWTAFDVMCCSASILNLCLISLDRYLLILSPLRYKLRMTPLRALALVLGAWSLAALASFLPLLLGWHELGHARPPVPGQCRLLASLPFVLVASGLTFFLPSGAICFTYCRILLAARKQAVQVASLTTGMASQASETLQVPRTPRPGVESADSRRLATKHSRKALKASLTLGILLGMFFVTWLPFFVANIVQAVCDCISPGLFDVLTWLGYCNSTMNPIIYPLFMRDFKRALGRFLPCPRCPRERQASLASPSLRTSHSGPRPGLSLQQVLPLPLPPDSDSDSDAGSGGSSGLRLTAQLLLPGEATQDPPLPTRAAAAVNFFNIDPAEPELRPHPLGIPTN
Chain of 5-hydroxytryptamine receptor 7 (P34969 whole entry): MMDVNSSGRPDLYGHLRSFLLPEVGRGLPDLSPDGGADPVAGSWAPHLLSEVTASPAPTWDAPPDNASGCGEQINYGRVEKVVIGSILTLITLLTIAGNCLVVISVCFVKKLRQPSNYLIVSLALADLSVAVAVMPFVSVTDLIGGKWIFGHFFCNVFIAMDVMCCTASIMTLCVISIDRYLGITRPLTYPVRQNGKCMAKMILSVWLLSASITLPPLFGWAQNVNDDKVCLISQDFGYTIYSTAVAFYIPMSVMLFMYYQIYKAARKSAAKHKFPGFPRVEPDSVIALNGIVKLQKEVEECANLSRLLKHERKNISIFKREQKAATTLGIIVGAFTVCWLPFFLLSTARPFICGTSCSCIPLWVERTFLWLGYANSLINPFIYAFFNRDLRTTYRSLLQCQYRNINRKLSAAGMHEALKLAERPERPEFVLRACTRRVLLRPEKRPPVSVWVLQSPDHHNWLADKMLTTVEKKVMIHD
Chain of 5-hydroxytryptamine receptor 2A (P28223 whole entry): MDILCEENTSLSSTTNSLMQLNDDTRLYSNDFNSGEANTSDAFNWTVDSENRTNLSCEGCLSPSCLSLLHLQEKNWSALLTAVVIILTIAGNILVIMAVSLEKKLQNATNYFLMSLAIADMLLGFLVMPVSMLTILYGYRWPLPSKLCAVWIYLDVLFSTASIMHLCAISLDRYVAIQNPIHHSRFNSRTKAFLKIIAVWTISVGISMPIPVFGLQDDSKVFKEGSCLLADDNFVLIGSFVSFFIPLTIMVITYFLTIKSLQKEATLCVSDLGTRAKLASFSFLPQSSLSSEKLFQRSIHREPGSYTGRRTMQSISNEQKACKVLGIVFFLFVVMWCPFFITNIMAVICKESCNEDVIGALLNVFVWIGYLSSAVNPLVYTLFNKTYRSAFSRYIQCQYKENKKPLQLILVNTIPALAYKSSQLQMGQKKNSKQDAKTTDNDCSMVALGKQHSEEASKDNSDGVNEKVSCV
Chain of CYP3A4 (P08684 whole entry): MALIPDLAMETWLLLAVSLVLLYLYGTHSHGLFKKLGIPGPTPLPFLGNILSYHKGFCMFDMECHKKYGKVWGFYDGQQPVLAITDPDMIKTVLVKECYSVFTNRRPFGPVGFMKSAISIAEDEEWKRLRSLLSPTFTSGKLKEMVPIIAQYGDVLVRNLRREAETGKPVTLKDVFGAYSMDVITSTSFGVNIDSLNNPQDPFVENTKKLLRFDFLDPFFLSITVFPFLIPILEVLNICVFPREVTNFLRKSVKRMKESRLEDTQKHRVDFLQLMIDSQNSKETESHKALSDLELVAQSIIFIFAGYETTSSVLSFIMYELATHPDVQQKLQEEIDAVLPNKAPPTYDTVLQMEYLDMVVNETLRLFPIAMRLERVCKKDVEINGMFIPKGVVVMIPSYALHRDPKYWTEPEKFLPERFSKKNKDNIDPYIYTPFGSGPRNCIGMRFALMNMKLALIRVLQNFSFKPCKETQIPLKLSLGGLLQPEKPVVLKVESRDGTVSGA

What is called Ki is the equilibrium dissociation constant of an inhibitor or competing ligand from its target. With `NC(=O)N1CCN(c2cccc(Cl)c2)CC1`, the Ki worked out at 7010 nM in data set [1]; 22800 nM in data set [2]; 7490 nM in [3]; 32400 nM in data set [4]; 116000 nM at D(2) dopamine receptor [5].

As for `O=c1n(Cc2ccc(CN3CCN(c4cccc(Cl)c4)CC3)cc2)nc2ccccn12`, the Ki in data set [1] is 52 nM; in [2], 3470 nM; in [3], 1160 nM; in data set [4], 1070 nM; at D(2) dopamine receptor [5], 148 nM.

Consider `O=c1n(CCCCCCN2CCN(c3cccc(Cl)c3)CC2)c2cccc3c2n1CCC3`, for which the Ki came out at 74 nM in data set [1]; 61 nM in data set [2]; 1140 nM in data set [3]; 66 nM in data set [4]; 18 nM at D(2) dopamine receptor [5].

Consider `O=c1n(CCCCCCN2CCN(c3cccc(C(F)(F)F)c3)CC2)nc2ccccn12`, for which the Ki in data set [1] amounted to 17 nM; in data set [2] it was 1070 nM; in data set [3] it was 404 nM; in data set [4], 291 nM; at D(2) dopamine receptor [5], 62 nM.

With `Cn1c(=O)c2c(ncn2C)n(C)c1=O` [CAFFEINE], in data set [6], the Papp at 5 h was determined as 12.2 ×10⁻⁶ cm/s.

What is called Kb is the equilibrium dissociation constant of an antagonist, usually derived from a functional assay. Lower therefore signals a more potent antagonist. As to `O=c1n(CCCCCCN2CCN(c3cccc4cccnc34)CC2)nc2ccccn12`, the Ki in data set [1] worked out at 3 nM; in data set [2], 655 nM; in [3], 4140 nM; in data set [4], 2200 nM; on D(2) dopamine receptor [5], 143 nM. Moreover, the Kb in data set [7] amounted to 3.6 nM.

In the case of `Clc1cccc(N2CCNCC2)c1` [CHLOROPHENYLPIPERAZINE], the Ki was 1750 nM in data set [8], 42 nM in data set [9] and over 10000 nM on D(2) dopamine receptor [10].

On to `O=S1(=O)N(CCCCCCN2CCN(c3cccc(Cl)c3)CC2)c2cccc3c2N1CCC3`, for which the Ki in data set [1] was 70 nM; in data set [2], 162 nM; in data set [3], 1690 nM; in [4], 282 nM; at D(2) dopamine receptor [5], 253 nM.

`NS(=O)(=O)NCCCCCCN1CCN(c2cccc(Cl)c2)CC1`: the Ki in [1] worked out at 21 nM; in [2] it was 167 nM; in data set [3], 1530 nM; in data set [4], 329 nM; at D(2) dopamine receptor [5], 229 nM.

With `O=c1n(CCCCCCN2CCN(c3cccc(Cl)c3Cl)CC2)nc2ccccn12`, the Ki in data set [1] was 7 nM; in data set [2], 243 nM; in data set [3] it was 299 nM; in data set [4] it was 47 nM; on D(2) dopamine receptor [5], 9 nM.

On to `O=c1n(CCCCCCN2CCN(c3cccc4c3OCCO4)CC2)nc2ccccn12`, for which the Ratio Ki in the data set listed under Homo sapiens amounted to 60. Further, the Ki is 1 nM in [1]; 271 nM in data set [2]; 2840 nM in data set [3]; 434 nM in data set [4]; 60 nM at D(2) dopamine receptor [5]. Besides, the Kb in data set [7] amounted to 2 nM.

On to `O=c1n(Cc2ccc(CN3CCN(c4ccc(Cl)cc4)CC3)cc2)nc2ccccn12`, for which the Ki in data set [1] was determined as 467 nM; in data set [2] it was 201000 nM; in data set [3] it was 2140 nM; in [4] it was 1450 nM; at D(2) dopamine receptor [5], 1390 nM.

As to `O=c1[nH]c2ccccc2n1CCN1CCN(c2cccc(C(F)(F)F)c2)CC1` [FLIBANSERIN], the affinity in [11], expressed as Ki, was 11.8 nM.

With `O=c1n(CC2CCC(CN3CCN(c4cccc(Cl)c4)CC3)CC2)nc2ccccn12` (stereo not given), the Ratio Ki in the data set filed under Homo sapiens is 18. For the same molecule, the Ki in [1] is 31 nM; in data set [2], 257 nM; in data set [3] it was 4580 nM; in [4], 493 nM; at D(2) dopamine receptor [5], 559 nM.

As for `O=c1n(CCCCCCN2CCN(c3cccc4ccccc34)CC2)nc2ccccn12`, the Ki in data set [1] was found to be 6 nM; in data set [2], 186 nM; in data set [3], 285 nM; in [4], 223 nM; at D(2) dopamine receptor [5] it was 32 nM.

Take `NC(=O)NCCCCCCN1CCN(c2cccc(Cl)c2)CC1`: the Ki in data set [1] came out at 39 nM; in data set [2], 183 nM; in data set [3], 4930 nM; in data set [4], 195 nM; at D(2) dopamine receptor [5], 235 nM.

For the molecule `S=c1n(CCCCCCN2CCN(c3cccc(Cl)c3)CC2)c2cccc3c2n1CCC3`, the Ki was found to be 206 nM in [1]; 171 nM in data set [2]; 582 nM in [3]; 258 nM in [4]; 85 nM on D(2) dopamine receptor [5].

As usually defined, the inhibition is how much of the control response was suppressed. A low value points to a response near the control. Consider `O=C(NCCCCCCn1nc2ccccn2c1=O)N1CCN(c2cccc(Cl)c2)CC1`, for which, in the data set filed under Homo sapiens, the Ratio Ki stood at 55. Also, the Activity result in [12] is given as “Toxic”; in [14] it was “Non-Toxic”. This molecule also displayed an inhibition at 10 µM at CYP3A4 of 75%. The remaining at 2 h, 50 µM in data set [13] amounted to 0%. The Ki was found to be 35 nM in [1]; 462 nM in data set [2]; 2550 nM in [3]; 530 nM in [4]; 1940 nM at D(2) dopamine receptor [5]. Also, in data set [6], the Papp at 5 h is 2.9 ×10⁻⁶ cm/s.
